In article PMC6469291, “2-Nitroimidazole-Furanoside Derivatives for Hypoxia Imaging—Investigation of Nucleoside Transporter Interaction, ^18F-Labeling and Preclinical PET Imaging” (Pharmaceuticals, 2019):

Tests used:
[1] = tested on: CT26 colon carcinoma; test: PET hypoxia imaging of CT26 colon carcinoma bearing mice; type: in vivo, BALB/c mice; settings: for tumor uptake: hypoxic CT26 tumor tissue; for tumor uptake / muscle uptake: PET; for tumor-to-muscle ratio (TMR): i.v., CT26 tumor vs. shoulder muscle, mean ± SD; for muscle uptake: normoxic muscle tissue
Experimental: The above-described CT26 mouse colon carcinoma cells were subcutaneously inoculated in the right shoulder of female BALB/c mice (1 × 10^6 cells in phosphate-buffered saline, PBS). Subsequently, the carcinomas were allowed to grow for a period of 13 days, reaching approximately 0.3 cm3. […] All animal experiments were conducted according to guidelines for the use and care of laboratory research animals under the German Animal Protection Law, and approved by local authorities (Regierungspräsidium Tübingen). […] All experiments were done using medical air as carrier gas for isoflurane anesthesia (1.5% isoflurane during PET scans, flow rate 0.4 L/min), including tracer injections, with a specialized vaporizer ([…], Louisville, KY, USA). Subsequent to the tracer injections, the animals were allowed to freely move in their home cages for an uptake period of 55 min, thus, breathing room air. […] PET scans were performed with a Siemens Inveon dedicated PET (DPET, Siemens Healthcare, Knoxville, TN, USA). PET scans were then reconstructed with a two-dimensional ordered subset expectation maximization algorithm (OSEM2D with 16 subsets and 4 iterations). Image zoom was set to 1 and matrix size to 128 × 128 yielding a final PET image spatial resolution of 0.79 × 0.79 × 0.80 mm3. PET data were manually corrected for radioactive decay of ^18F. PET image analysis was performed using the PMOD 3.2_base 64 image viewing tool (PMOD Technologies, Zürich, Switzerland). […] Finally, PET data were expressed as percent injected dose per cubic-centimeter (%ID/cc) or tumor-to-muscle ratio (TMR).

[2] = biological target: T1, hCNT3 (SLC28A3) (Homo sapiens, UniProt Q9HAS3); test: Inhibition of [^3H]uridine uptake in yeast cells producing recombinant hCNT3; type: cell-based; settings: inhibition of 1 µmol/L [^3H]uridine transport, yeast, 0–3 mM test compound, mean ± SE, n = 2–3; NI = no interaction
T1 construct: expressed in transfected cells; host or cells: Saccharomyces cerevisiae
T1 sequence (Q9HAS3 1-691): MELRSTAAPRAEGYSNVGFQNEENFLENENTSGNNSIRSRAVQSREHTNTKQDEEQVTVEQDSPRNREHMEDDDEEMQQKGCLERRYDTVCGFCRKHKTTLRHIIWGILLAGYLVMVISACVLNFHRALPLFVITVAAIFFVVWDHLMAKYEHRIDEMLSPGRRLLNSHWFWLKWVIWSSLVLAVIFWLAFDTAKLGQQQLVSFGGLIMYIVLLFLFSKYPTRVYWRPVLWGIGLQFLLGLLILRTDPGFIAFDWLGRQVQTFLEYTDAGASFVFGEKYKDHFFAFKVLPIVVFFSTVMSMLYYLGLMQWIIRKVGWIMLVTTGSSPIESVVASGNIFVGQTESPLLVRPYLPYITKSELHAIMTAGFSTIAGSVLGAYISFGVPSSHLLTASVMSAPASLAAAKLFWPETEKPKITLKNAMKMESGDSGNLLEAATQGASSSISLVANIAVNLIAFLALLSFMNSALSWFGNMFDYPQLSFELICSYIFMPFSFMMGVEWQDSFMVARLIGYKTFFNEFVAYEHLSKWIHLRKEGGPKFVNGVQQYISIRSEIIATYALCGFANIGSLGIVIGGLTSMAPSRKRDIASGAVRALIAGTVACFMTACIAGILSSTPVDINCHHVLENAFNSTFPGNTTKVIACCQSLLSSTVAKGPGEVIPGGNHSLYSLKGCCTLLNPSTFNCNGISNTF
Experimental: (§1) The interaction of 2-nitroimidazole sugars with nucleoside transporters was determined by ability of the 2-nitroimidazole sugars to inhibit [^3H]uridine uptake in yeast cells producing recombinant human nucleoside transporters and results expressed as IC50 values.
(§2) Saccharomyces cerevisiae yeast was separately transformed with plasmids (pYPhENT1, pYPhENT2, pYPhCNT1, pYPhCNT2, or pYPhCNT3) encoding hNTs (hENT1, hENT2, hCNT1, hCNT2, or hCNT3, respectively) as described elsewhere. Uptake of 1 µmol/L [^3H]uridine (Moravek Biochemicals) into yeast was measured as previously described using a semi-automated cell harvester (Micro96 HARVESTER; Skatron Instruments, Tranby, Norway). Yeast was incubated at room temperature with 1 µmol/L [^3H]uridine in yeast growth media (pH 7.4) in the presence or absence (uninhibited controls) of graded concentrations (0–3 mM) of test compounds. The following compounds were used for transporter experiments: FAZA, β-FAZA, α-FAZDR, β-FAZDR. Uridine self-inhibition was used to determine maximum inhibition of mediated transport. Concentration–effect curves were subjected to nonlinear regression analysis using Prism software (version 4.03; GraphPad Software Inc.) to obtain the concentration of test compound that inhibited uridine uptake by 50%, relative to that of untreated cells (IC50 values). Each IC50 value determination was conducted with nine concentrations and four replicates per concentration and experiments were repeated two to three times.

[3] = biological target: T2, hCNT1 (SLC28A1) (Homo sapiens, UniProt O00337); test: Inhibition of [^3H]uridine uptake in yeast cells producing recombinant hCNT1; type: cell-based; settings: inhibition of 1 µmol/L [^3H]uridine transport, yeast, 0–3 mM test compound, mean ± SE, n = 2–3; NI = no interaction
T2 construct: expressed in transfected cells; host or cells: Saccharomyces cerevisiae
T2 sequence (O00337 1-649): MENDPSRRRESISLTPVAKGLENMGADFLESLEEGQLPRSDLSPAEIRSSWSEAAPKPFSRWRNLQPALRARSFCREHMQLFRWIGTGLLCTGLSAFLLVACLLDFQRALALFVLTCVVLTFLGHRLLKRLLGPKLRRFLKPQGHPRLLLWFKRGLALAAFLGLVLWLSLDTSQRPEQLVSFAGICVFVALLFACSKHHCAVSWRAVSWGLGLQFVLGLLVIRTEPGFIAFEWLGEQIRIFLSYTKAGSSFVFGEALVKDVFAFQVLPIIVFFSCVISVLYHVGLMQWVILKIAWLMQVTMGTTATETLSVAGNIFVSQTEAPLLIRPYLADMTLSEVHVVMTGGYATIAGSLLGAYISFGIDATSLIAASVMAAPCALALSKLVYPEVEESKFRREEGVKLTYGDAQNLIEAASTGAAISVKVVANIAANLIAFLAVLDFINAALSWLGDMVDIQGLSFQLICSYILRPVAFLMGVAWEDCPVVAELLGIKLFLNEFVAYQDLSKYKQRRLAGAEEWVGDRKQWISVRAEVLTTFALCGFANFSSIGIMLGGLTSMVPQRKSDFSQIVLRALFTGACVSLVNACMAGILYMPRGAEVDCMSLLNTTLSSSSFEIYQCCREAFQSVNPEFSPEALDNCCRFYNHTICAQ
Experimental: as §1, §2

[4] = biological target: T3, hENT1 (SLC29A1) (Homo sapiens, UniProt Q99808); test: Inhibition of [^3H]uridine uptake in yeast cells producing recombinant hENT1; type: cell-based; settings: inhibition of 1 µmol/L [^3H]uridine transport, yeast, 0–3 mM test compound, mean ± SE, n = 2–3; NI = no interaction
T3 construct: expressed in transfected cells; host or cells: Saccharomyces cerevisiae
T3 sequence (Q99808 1-456): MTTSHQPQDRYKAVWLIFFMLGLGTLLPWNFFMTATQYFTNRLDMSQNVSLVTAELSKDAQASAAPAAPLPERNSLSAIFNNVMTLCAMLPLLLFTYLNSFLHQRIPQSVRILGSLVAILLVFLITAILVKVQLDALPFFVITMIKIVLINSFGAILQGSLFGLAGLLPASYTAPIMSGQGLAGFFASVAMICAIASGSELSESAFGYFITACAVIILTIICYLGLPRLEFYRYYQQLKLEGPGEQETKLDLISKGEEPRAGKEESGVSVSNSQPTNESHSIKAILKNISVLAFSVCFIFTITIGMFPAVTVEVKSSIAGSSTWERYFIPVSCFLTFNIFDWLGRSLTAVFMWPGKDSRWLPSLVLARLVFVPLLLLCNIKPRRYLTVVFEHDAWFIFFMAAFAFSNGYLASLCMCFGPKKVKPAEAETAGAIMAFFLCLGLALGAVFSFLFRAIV
Experimental: as §1, §2

[5] = biological target: T4, hCNT2 (SLC28A2) (Homo sapiens, UniProt O43868); test: Inhibition of [^3H]uridine uptake in yeast cells producing recombinant hCNT2; type: cell-based; settings: inhibition of 1 µmol/L [^3H]uridine transport, yeast, 0–3 mM test compound, mean ± SE, n = 2–3; NI = no interaction
T4 construct: expressed in transfected cells; host or cells: Saccharomyces cerevisiae
T4 sequence (O43868 1-658): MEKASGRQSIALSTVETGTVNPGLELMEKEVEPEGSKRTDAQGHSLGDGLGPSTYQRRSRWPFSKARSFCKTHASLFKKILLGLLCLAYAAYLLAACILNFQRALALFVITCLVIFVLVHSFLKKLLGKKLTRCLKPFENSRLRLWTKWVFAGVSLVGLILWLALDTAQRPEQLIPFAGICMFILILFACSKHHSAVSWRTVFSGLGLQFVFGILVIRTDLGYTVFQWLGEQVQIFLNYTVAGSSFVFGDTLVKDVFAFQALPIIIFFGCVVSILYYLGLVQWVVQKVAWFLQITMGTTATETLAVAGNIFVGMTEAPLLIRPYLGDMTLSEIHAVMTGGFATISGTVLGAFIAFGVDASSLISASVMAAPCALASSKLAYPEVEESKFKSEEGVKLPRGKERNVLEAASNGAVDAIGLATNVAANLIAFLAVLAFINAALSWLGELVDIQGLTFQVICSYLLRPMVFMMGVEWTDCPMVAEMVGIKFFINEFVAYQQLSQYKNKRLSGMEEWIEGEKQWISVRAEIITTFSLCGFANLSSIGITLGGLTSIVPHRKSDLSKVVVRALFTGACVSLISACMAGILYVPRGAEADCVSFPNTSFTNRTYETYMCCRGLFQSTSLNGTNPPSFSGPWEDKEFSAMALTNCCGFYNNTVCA
Experimental: as §1, §2

[6] = biological target: T5, hENT2 (SLC29A2) (Homo sapiens, UniProt Q14542); test: Inhibition of [^3H]uridine uptake in yeast cells producing recombinant hENT2; type: cell-based; settings: inhibition of 1 µmol/L [^3H]uridine transport, yeast, 0–3 mM test compound, mean ± SE, n = 2–3; NI = no interaction
T5 construct: expressed in transfected cells; host or cells: Saccharomyces cerevisiae
T5 sequence (Q14542 1-456): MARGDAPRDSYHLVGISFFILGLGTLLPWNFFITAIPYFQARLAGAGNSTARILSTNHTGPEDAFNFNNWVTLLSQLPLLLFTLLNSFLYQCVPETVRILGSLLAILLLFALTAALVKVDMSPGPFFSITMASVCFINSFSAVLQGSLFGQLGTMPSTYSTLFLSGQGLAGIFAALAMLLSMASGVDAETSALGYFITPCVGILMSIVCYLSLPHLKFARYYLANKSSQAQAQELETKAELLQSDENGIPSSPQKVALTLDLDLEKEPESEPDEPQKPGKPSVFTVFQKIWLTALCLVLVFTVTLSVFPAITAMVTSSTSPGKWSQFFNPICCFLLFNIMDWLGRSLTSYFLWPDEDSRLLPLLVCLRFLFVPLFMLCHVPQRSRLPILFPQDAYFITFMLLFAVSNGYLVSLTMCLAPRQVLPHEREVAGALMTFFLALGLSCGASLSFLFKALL
Experimental: as §1, §2

| tumor uptake ([1]; 3 h p.i.) | muscle uptake ([1]; 3 h p.i.) | IC50 [2] | IC50 hCNT3 (SLC28A3) [2] | IC50 [3] | IC50 hCNT1 (SLC28A1) [3] | IC50 [4] | IC50 hENT1 (SLC29A1) [4] | IC50 [5] | IC50 hCNT2 (SLC28A2) [5] | IC50 [6] | IC50 hENT2 (SLC29A2) [6] | SMILES | tumor uptake ([1]; 1 h p.i.) | tumor-to-muscle ratio (TMR) ([1]; 1 h p.i.) | muscle uptake ([1]; 1 h p.i.) | muscle clearance ([1]; 2 h p.i. relative to 1 h p.i.) | tumor clearance ([1]; 2 h p.i. relative to 1 h p.i.) | clearance ratio for tumor relative to muscle tissue ([1]; 3 h p.i.) | muscle clearance ([1]; 3 h p.i. relative to 1 h p.i.) | tumor clearance ([1]; 3 h p.i. relative to 1 h p.i.) |
| --- | --- | --- | --- | --- | --- | --- | --- | --- | --- | --- | --- | --- | --- | --- | --- | --- | --- | --- | --- | --- |
| – | – | – | – | – | – | – | – | – | – | – | – | O=[N+]([O-])c1nccn1CC(O)C[18F] (stereo not shown) [[^18F]FMISO, reference compound] | 2.49 ± 0.88 %ID/cc | 1.37 ± 0.11 | 1.81 ± 0.58 %ID/cc | 37.2 ± 4.3% | 11.8 ± 6.5% | 0.45 ± 0.17 | 58.6 ± 3.3% | 26.9 ± 10.1% |
| 0.88 ± 0.42 %ID/cc | 0.31 ± 0.15 %ID/cc | – | – | – | – | – | – | – | – | – | – | O=[N+]([O-])c1nccn1[C@@H]1C[C@H](O)[C@@H](C[18F])O1 [α-[^18F]FAZDR, 1′-α-[2′,5′-dideoxy-5′-[^18F]fluoro-D-ribofuranosyl]-2-nitroimidazole] | 1.90 ± 0.48 %ID/cc | 1.93 ± 0.39 | 1.01 ± 0.32 %ID/cc | 53.3 ± 8.3% | 34.2 ± 7.5% | 0.79 ± 0.12 | 70.3 ± 5.5% | 55.3 ± 8.3% |
| – | – | > 3 mM | no interaction | > 3 mM | no interaction | > 3 mM | no interaction | > 3 mM | no interaction | > 3 mM | no interaction | O=[N+]([O-])c1nccn1C1CC(O)C(CF)O1 (stereo not drawn) [α-FAZDR] | – | – | – | – | – | – | – | – |
